US11072618B2, “Compounds, compositions and methods” (Denali Therapeutics Inc., priority 2016, dated 2021)

Target: T1, GST-human receptor interacting protein kinase 1 fusion (8-327) enzyme (Homo sapiens, UniProt Q13546)
T1 sequence (Q13546 8-327): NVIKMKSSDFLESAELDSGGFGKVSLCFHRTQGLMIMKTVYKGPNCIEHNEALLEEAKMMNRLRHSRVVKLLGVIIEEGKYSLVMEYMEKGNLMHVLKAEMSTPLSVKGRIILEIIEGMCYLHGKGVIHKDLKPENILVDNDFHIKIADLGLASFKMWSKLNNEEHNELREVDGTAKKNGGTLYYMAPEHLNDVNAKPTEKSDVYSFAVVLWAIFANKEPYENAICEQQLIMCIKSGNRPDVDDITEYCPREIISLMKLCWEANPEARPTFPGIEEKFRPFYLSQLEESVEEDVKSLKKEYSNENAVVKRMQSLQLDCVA
Assay: Fluorescent Polarization Binding (FP Binding) assay, receptor interacting protein kinase 1
Settings: 10 nM enzyme, 5 nM fluorescent-labeled ligand, RT 30 min, mean of a minimum of two independent experiments
Protocol: Fluorescent Polarization Binding (FP Binding) assay (Berger S. B. et al. (2015) Cell Death Discovery, 1: 15009; Maki J. L. et al. (2012) Anal Biochem., 427(2): 164-174) was performed in polystyrene low volume 384-well black plate, at Room Temperature (RT) in a final volume of 10.1 μL/well using 10 nM of GST-human receptor interacting protein kinase 1 fusion (8-327) enzyme and 5 nM of fluorescent-labeled ligand (14-(2-{[3-({2-{[4-(cyanomethyl)phenyl]amino}-6-[(5-cyclopropyl-1H-pyrazol-3-yl)amino]-4-pyrimidinyl}amino) propyl]amino}-2-oxoethyl)-16,16,18,18-tetramethyl-6,7,7a,8a,9,10,16,18-octahydrobenzo[2″,3″]indolizino[8″,7″:5′,6′]pyrano[3′,2′:3,4]pyrido[1,2-a]indol-5-ium-2-sulfonate.
Test compounds were serially diluted in DMSO at 100 fold final concentrations in the assay (1% DMSO final). In each well of a 384-well Plate were dispensed 0.1 μL of compound solution (or DMSO for controls) followed by 5 μL of GST-human receptor interacting protein kinase 1 fusion (8-327) enzyme at twice the final concentrations in assay buffer (50 mM HEPES pH 7.5, 10 mM NaCl, 50 mM MgCl2, 0.02% CHAPS, 0.5 mM DTT and 0.01% Pluronic F127). For negative control the enzyme addition was replaced by assay buffer only.
After addition of 5 μL of fluorescent-labeled ligand at twice the final concentrations in assay buffer, the plate was incubated at RT for 30 min. At the end, the binding was measured as FP value with the Envision (PerkinElmer) plate reader using filter for an excitation λ=531 nm FP and an emission λ=595 nm FP (S & P-pol).
Test compound inhibition was expressed as percent inhibition of internal assay controls. For concentration response curves, normalized data is fit and IC50 determined using XL-fit (IDBS) for Excel. IC50 were averaged to determine a mean value, for a minimum of two independent experiments.
Receptor interacting protein kinase 1 activity of exemplary compounds was determined according to the above general procedures.

| Compound | IC50 |
| --- | --- |
| CC(F)(F)C1(C)CN2CCC(c3cncc(C#N)c3)N2C1=O (single isomer, unassigned) [Compound 36] | 1000 to 30000 nM |
| CC1(C(F)F)CN2CCC(c3cncc(C#N)c3)N2C1=O (single isomer, unassigned) [Compound 38] | 1000 to 30000 nM |
| CC1(C(F)F)CN2CCC(c3cncc(C#N)c3)N2C1=O (single isomer, unassigned) [Compound 39] | < 1000 nM |
| CC1(C(F)F)CN2CCC(c3cncc(F)c3)N2C1=O (single isomer, unassigned) [Compound 45] | < 1000 nM |
| CCC1(C(F)F)C[C@H]2CCC(c3cccc(F)c3)N2C1=O (single isomer, unassigned) [Compound 55] | < 1000 nM |
| CCC1(C(F)F)C[C@@H]2CCC(c3cccc(F)c3)N2C1=O (single isomer, unassigned) [Compound 57] | < 1000 nM |
| CC1(C)CN2CC[C@@H](c3ccccc3)N2C1=O [Compound 1] | < 1000 nM |
| CCC1(CC)CN2CCC(c3ccc(F)cc3)N2C1=O (centres unmarked) [Compound 2] | 1000 to 30000 nM |
| CC1(C)CN2CCC(c3cc(F)cc(C#N)c3)N2C1=O (centres unmarked) [Compound 5] | < 1000 nM |
| CC1(C)CCN2CCC(c3ccccc3)N2C1=O (centres unmarked) [Compound 8] | 1000 to 30000 nM |
| CC1(C)CN2CCC(c3ccc(F)c(F)c3)N2C1=O (centres unmarked) [Compound 9] | 1000 to 30000 nM |
| CCC1(C(F)F)CN2CCC(c3cncc(Br)c3)N2C1=O (centres unmarked) [Compound 18] | < 1000 nM |
| CCC1(C(F)F)CN2CCC(c3cncc(C#N)c3)N2C1=O (centres unmarked) [Compound 19] | < 1000 nM |
| CCC1(C(F)F)CN2CCC(c3cc(F)cc(C#N)c3)N2C1=O (centres unmarked) [Compound 31] | < 1000 nM |
| CCC1(C(F)F)CN2CCC(c3cncc(F)c3)N2C1=O (centres unmarked) [Compound 33] | < 1000 nM |
| CCC1(C(F)F)CN2CCC(c3cncc(F)c3)N2C1=O (centres unmarked) [Compound 34] | 1000 to 30000 nM |
| CC1(CC2CC2)CN2CCC(c3cc(F)cc(C#N)c3)N2C1=O (centres unmarked) [Compound 35] | < 1000 nM |
| CC(F)(F)C1(C)CN2CCC(c3cncc(C#N)c3)N2C1=O (centres unmarked) [Compound 37] | < 1000 nM |
| CC1(C(F)F)CN2CCC(c3cc(F)cc(C#N)c3)N2C1=O (centres unmarked) [Compound 40] | < 1000 nM |
| CC1(C(F)F)CN2CCC(c3cc(F)cc(C#N)c3)N2C1=O (centres unmarked) [Compound 41] | 1000 to 30000 nM |
| CC(F)(F)C1(C)CN2CCC(c3cc(F)cc(C#N)c3)N2C1=O (centres unmarked) [Compound 42] | < 1000 nM |
| CC(F)(F)C1(C)CN2CCC(c3cc(F)cc(C#N)c3)N2C1=O (centres unmarked) [Compound 43] | 1000 to 30000 nM |
| CC(F)(F)C1(C)CN2CCC(c3cncc(F)c3)N2C1=O (centres unmarked) [Compound 46] | 1000 to 30000 nM |
| CC(F)(F)C1(C)CN2CCC(c3cncc(F)c3)N2C1=O (centres unmarked) [Compound 47] | < 1000 nM |
| O=C1N2C(c3cncc(F)c3)CCN2CC1(CC(F)(F)F)C(F)F (centres unmarked) [Compound 48] | 1000 to 30000 nM |
| CC1(CC(F)(F)F)CN2CCC(c3cncc(F)c3)N2C1=O (centres unmarked) [Compound 50] | < 1000 nM |
| CC1(CC(F)(F)F)CN2CCC(c3cncc(F)c3)N2C1=O (centres unmarked) [Compound 51] | 1000 to 30000 nM |
| O=C1N2C(c3cncc(F)c3)CCN2CC1(CC1CC1)C(F)F (centres unmarked) [Compound 52] | < 1000 nM |
| O=C1N2C(c3cncc(F)c3)CCN2CC1(CC1CC1)C(F)F (centres unmarked) [Compound 53] | 1000 to 30000 nM |
| CCCC1(C(F)F)CN2CCC(c3cncc(C#N)c3)N2C1=O (centres unmarked) [Compound 54] | < 1000 nM |

Continued, values first:

| IC50 | Compound |
| --- | --- |
| < 1000 nM | CC1(C)CN2CCC(c3cccc(F)c3)N2C1=O (single isomer, unassigned) [Compound 3] |
| < 1000 nM | CCC1(C)CN2CCC(c3cc(F)cc(F)c3)N2C1=O (single isomer, unassigned) [Compound 22] |
| 1000 to 30000 nM | CC1(C)CN2CCC(c3cccc(C#N)c3)N2C1=O (centres unmarked) [Compound 4] |
| < 1000 nM | CCC1(C)CN2CCC(c3cccc(F)c3)N2C1=O (centres unmarked) [Compound 7] |
| < 1000 nM | CCC1(C)CN2CCC(c3ccc(F)c(F)c3)N2C1=O (centres unmarked) [Compound 10] |
| < 1000 nM | CC1(C)CC2(CN3CCC(c4cccc(F)c4)N3C2=O)C1 (centres unmarked) [Compound 12] |
| < 1000 nM | CC(F)(F)C1(C)CN2CCC(c3cccc(F)c3)N2C1=O (centres unmarked) [Compound 13] |
| < 1000 nM | C=CCC1(C)CN2CCC(c3cccc(F)c3)N2C1=O (centres unmarked) [Compound 14] |
| 1000 to 30000 nM | CCCC1(C)CN2CCC(c3cccc(F)c3)N2C1=O (centres unmarked) [Compound 15] |
| < 1000 nM | CCCC1(C)CN2CCC(c3cccc(F)c3)N2C1=O (centres unmarked) [Compound 16] |
| < 1000 nM | CC1(CC2CC2)CN2CCC(c3cccc(F)c3)N2C1=O (centres unmarked) [Compound 17] |
| < 1000 nM | CCC1(C(F)F)CN2CCC(c3cccc(F)c3)N2C1=O (centres unmarked) [Compound 20] |
| < 1000 nM | CCC1(C)CN2CCC(c3cc(F)cc(F)c3)N2C1=O (centres unmarked) [Compound 21] |
| < 1000 nM | CCC1(C)CN2CCC(c3cc(F)cc(C#N)c3)N2C1=O (centres unmarked) [Compound 23] |
| < 1000 nM | CCC1(C)CN2CCC(c3cncc(F)c3)N2C1=O (centres unmarked) [Compound 25] |
| 1000 to 30000 nM | CCC1(C)CN2CCC(c3cncc(F)c3)N2C1=O (centres unmarked) [Compound 26] |
| < 1000 nM | CC1(CC(F)F)CN2CCC(c3cccc(F)c3)N2C1=O (centres unmarked) [Compound 27] |
| < 1000 nM | CC1(CC#N)CN2CCC(c3cccc(F)c3)N2C1=O (centres unmarked) [Compound 28] |
| < 1000 nM | CCC1(CCl)CN2CCC(c3cccc(F)c3)N2C1=O (centres unmarked) [Compound 29] |
| < 1000 nM | CCC1(CF)CN2CCC(c3cccc(F)c3)N2C1=O (centres unmarked) [Compound 30] |
